Experimental data reported in patent US20240415819A1, “MACROCYCLIC COMPOUNDS AS PROTEASOME SUBUNIT BETA TYPE-5 INHIBITORS” (Lead Discovery Center GmbH, priority 2021, published 2024).
pIC50: −log10 of the molar value. Where two headings read alike, the source gives them in different places.

Assays:
hPMBC = experiment: Chymotrypsin-like ProteasomeGlo assay in hPBMC; type: cell-based; conditions: Homo sapiens; read-out: Pglo hPBMC
Excerpt: Chymotrypsin-like ProteasomeGlo assay in the B-cells isolated from PBMC's following compound addition (IC50). • 1. PBMC's will be isolated from human blood followed by B-cell isolation from the PBMC's using the Miltenyi Isolation Kit. • 2. This experiment will use the Chymotrypsin-like ProteasomeGlo read-out to generate IC50's following compound treatment. • 3. Dilute all compounds 1:100 for the assay. • 4. […] Repeat the DMSO transfer with lane 12. • 5. Lane 12 should not be seeded with any cells. Only medium! • 6. For all steps, make sure the samples and reagents remain cool! • 7. While dealing with the buffy coats, be careful to not let any exposed skin to be in direct contact with the blood.
For the initial steps and to make processing the buffy coats easier, separately process the buffy coats. • a. Cut the tube attached to the buffy coats carefully using a clean, sterile and fresh scalpel. • b. Transfer the blood into 2 individual 50 ml falcons. • c. Add an equal volume of DPBS to the blood in the falcons. • d. Add ˜20 ml of lymphocyte separating medium to two 50 ml falcons. • e. Carefully pour 15-20 ml of the blood+DPBS mix from step c. onto the lymphocyte separating medium from step d. • f. Centrifuge the falcons with the lymphocyte separating medium+blood mix at 800×g for 15 minutes using a swing-out rotor. • g. Following centrifugation, carefully remove the falcons from the centrifuge. • h. The following layers will be observed: • i. Aspirate the plasma layer off carefully without disturbing the different layers. • j. Remove the cell pellet using a pipette into two fresh 50 ml falcons. • k. Fill the falcons with the cells up to 50 ml with DPBS. • l. Centrifuge the falcons at 250×g for 10 minutes using a swing-out rotor (Brake-off). • m. Aspirate the complete DPBS off the cells without disturbing the cell pellet at the bottom of the falcon. • n. Re-suspend the cell pellet in 10 ml of 1×RBC lysis buffer. • o. Incubate the falcons at room temperature in the dark for 10 minutes. • p. After RBC lysis, centrifuge the tubes at 250×g for 10 minutes using a swing-out rotor (brake-off). • (*Note: If the cell pellet is still red or light red, repeat steps n. to p.!) • q. Re-suspend the cell pellet in DPBS up to 50 ml in the falcon. • r. Centrifuge the falcons at 250×g for 10 minutes using a swing-out rotor (Brake-off). • s. Aspirate the DPBS off the cells without disturbing the cell pellet at the bottom of the falcon. • t. Repeat the wash step as described in steps q. to s. 2× times more (total number of washes is 3×). • u. Aspirate the DPBS completely off the cell pellet after the last wash without disturbing the cell pellet. • v. Re-suspend the cell pellet in 20 ml of PBMC cell medium. • w.
• a. Remove the plates with cells from the incubator. • b. Take all the plates including the compound plate, intermediate plate and Staurosporine plate to the ECHO. • c. Click on “Open” in the ECHO software and select the protocol “QLI5_25ul_30 uM-Grenier”. • d. Follow the on-screen prompts and instructions once you click “Start” to insert the compound plate, intermediate plate and destination plates. • e. Change the final number of destination plates on the program. • f. Follow the on-screen prompts and instructions once you click “Start” to load the Staurosporine and destination plates. • g. Once all the compounds, DMSO and Staurosporine have been transferred, place the destination plates in a wet tissue box. • h. Place the destination plates back into the incubator and incubate at 37° C., 5% CO2 for 105 minutes. • i. Re-seal all the compound+Stauro diamond and intermediate plates and store in the dark. Chymotrypsin like ProteasomeGlo Assay • 1. Thaw the components of the ProteasomeGlo assay at room temperature including the ProteasomeGlo Buffer, the lyophilized Luciferin Detection Reagent and the Suc-LLVY-Glo Substrate. • 2. […]

HT-29 cells = experiment: CellTiter-Glo luminescent cell viability assay with HT-29 cells (72h incubation); type: cell-based, human; conditions: Homo sapiens, HT-29, HT29 cells, read-out: CTG HT29
In short: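 Viability read as CellTiter-Glo luminescence after 72 h compound exposure, with 10 μM staurosporine and DMSO as control wells. Seeding 400 cells per well, compound added 24 h post-plating; IC50 from curve fitting.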

[1] = tested on: A549 (human lung carcinoma cell line); experiment: Glo assay of A549 cells (Table 3; ProteasomeGlo plating scheme); type: cell-based; conditions: Homo sapiens; for pIC50: A549 cells, read-out: PGLo A549
In short: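 Cells plated in 384 wells; compound, DMSO, staurosporine transferred by ECHO; 105 min, 37° C., 5% CO2; Proteasome-Glo (Suc-LLVY-Glo) reagent added; dark 10-15 min; luminescence; IC50 nM.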

[2] = biological target: T1, β5 subunit of the human immunoproteasome (IPS) (Homo sapiens, UniProt P28062); experiment: β5 inhibition assay, human immunoproteasome (Suc-LLVY-AMC); type: biochemical; conditions: IC50 class, Suc-LLVY-AMC substrate
T1 construct: purchased Boston Biochem E-370
In short: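 β5 activity is read as liberated AMC fluorescence (355/460 nm) after 4 h dark reaction at RT with 22.6 μM Suc-LLVY-AMC, stopped by 1 μM bortezomib. Beforehand, 1 nM human IPS and compound sat 10 min at RT in HEPES pH 7.5 buffer containing NaCl, 0.02% SDS and DTT.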

[3] = biological target: T2, β5 subunit of the human constitutive proteasome (CPS) (Homo sapiens, UniProt P28074); experiment: β5 inhibition assay, human constitutive proteasome (Suc-LLVY-AMC); type: biochemical; conditions: IC50 class, Suc-LLVY-AMC substrate
T2 construct: purchased Boston Biochem E-360
Experimental: The enzymatic activity of the β5 subunit of the human constitutive proteasome (CPS) is analyzed. In another assay, which differs from the assay of the human constitutive proteasome only in using the human immunoproteasome (IPS) the enzymatic activity of the β5 subunit of the human immunoproteasome (IPS) is analyzed. […] Inhibition is indicated as IC50 [nM] (“-”=not measured).

[4] = tested on: RPMI 8226 (B lymphocyte cell line, multiple myeloma); experiment: 48 hr CTG viability assay, RPMI 8226; type: cell-based; conditions: Homo sapiens; for pIC50: RPMI-8226, 48 hr CTG, read-out: RPMI-8226 IC50
In short: (§1)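 Growth inhibition by compound over 48 h; IC50 (nM) derived from duplicate CellTiter-Glo luminescence readings across 0.0015–10 uM.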

[5] = tested on: MM1 S (B lymphoblast cell line); experiment: 48 hr CTG viability assay, MM1S; type: cell-based; conditions: Homo sapiens; for pIC50: 48 hr CTG, read-out: MM1S IC50
In short: as §1

[6] = tested on: Hs 746T (human gastric carcinoma cell line); experiment: 48 hr CTG viability assay, Hs 746T; type: cell-based; conditions: Hs746T; for pIC50: 48 hr CTG, read-out: Hs 746T IC50
In short: as §1

pIC50 (hPMBC) | pIC50 (HT-29 cells) | pIC50 [1] | pIC50 [2] | pIC50 [3] | Structure (SMILES) | further results
5.30 to 6.00 | 6.30 to 7.00 | – | – | – | CC(=O)N[C@H]1CC(=O)N2CCCC(COc3ccc(C)c(c3)CNC(=O)[C@H](CCc3ccccc3)NC1=O)C2 (stereo partly drawn) [Compound 257, N-((8S,11S)-4^4-methyl-7,10,13-trioxo-8-phenethyl-3-oxa-6,9-diaza-1(3,1)-piperidina-4(1,3)-benzenacyclotridecaphane-11-yl)acetamide] | –
> 7.00 | 6.30 to 7.00 | 6.30 to 7.00 | – | – | Cc1ccc2cc1CNC(=O)[C@H](CCc1ccccc1)NC(=O)[C@@H](NC(=O)OCc1ccccc1)CCCC(=O)N1CCC(CO2)C1 (stereo partly drawn) [Compound 351, benzyl ((8S, 11S)-4^4-methyl-7,10,15-trioxo-8-phenethyl-3-oxa-6,9-diaza-1(3,1)-pyrrolidina-4(1,3)-benzenacyclopentadecaphane-11-yl)carbamate] | –
< 5.30 | 6.30 to 7.00 | – | – | – | CC(=O)N[C@H]1CC(=O)N2CCC2(C)COc2ccc(C)c(c2)CNC(=O)[C@H](CCc2ccccc2)NC1=O (stereo partly drawn) [Compound 260, N-((8S,11S)-1^2,4^4-dimethyl-7,10,13-trioxo-8-phenethyl-3-oxa-6,9-diaza-1(2,1)-azetidina-4(1,3)-benzenacyclotridecaphane-11-yl)acetamide] | –
< 5.30 | 6.30 to 7.00 | – | – | – | CC(=O)N[C@H]1CC(=O)N2CC(COc3ccc(C)c(c3)CNC(=O)[C@H](CCc3ccccc3)NC1=O)C2 [Compound 259, N-((8S,11S)-4^4-methyl-7,10,13-trioxo-8-phenethyl-3-oxa-6,9-diaza-1(3,1)-azetidina-4(1,3)-benzenacyclotridecaphane-11-yl)acetamide] | –
5.30 to 6.00 | 6.30 to 7.00 | – | 5.30 to 6.00 | < 5.30 | CC(=O)N[C@H]1CC(=O)NCCCCOc2ccc(C)c(c2)CNC(=O)[C@H](CCc2ccccc2)NC1=O [Compound 168, N-((10S,13S)-1^4-methyl-8,11,14-trioxo-13-phenethyl-2-oxa-7,12,15-triaza-1(1,3)-benzenacyclohexadecaphane-10-yl)acetamide] | –
< 5.30 | 6.30 to 7.00 | – | – | – | CC(=O)N[C@H]1CC(=O)NCCCOc2ccc(C)c(c2)CNC(=O)[C@H](CCc2ccccc2)NC1=O [Compound 253, N-((9S,12S)-1^4-methyl-7,10,13-trioxo-12-phenethyl-2-oxa-6,11,14-triaza-1(1,3)-benzenacyclopentadecaphane-9-yl)acetamide] | –
< 5.30 | 6.30 to 7.00 | – | – | – | CC(=O)N[C@H]1CC(=O)N(C)CCCOc2ccc(C)c(c2)CNC(=O)[C@H](CCc2ccccc2)NC1=O [Compound 256, N-((9S,12S)-1^4,6-dimethyl-7,10,13-trioxo-12-phenethyl-2-oxa-6,11,14-triaza-1(1,3)-benzenacyclopentadecaphane-9-yl)acetamide] | –
> 7.00 | 6.30 to 7.00 | – | – | – | Cc1cc2cc(c1C)CNC(=O)[C@H](CCc1ccccc1)NC(=O)[C@@H](NC(=O)OCc1ccccc1)CCCC(=O)NCCCCO2 [Compound 354, benzyl ((12S,15S)-14,15-dimethyl-8,13,16-trioxo-15-phenethyl-2-oxa-7,14,17-triaza-1(1,3)-benzenacyclooctadecaphane-12-yl)carbamate] | –
< 5.30 | 6.30 to 7.00 | < 5.30 | – | – | CC(=O)N[C@H]1CC(=O)N2CCCC(C2)Oc2ccc(C)c(c2)CNC(=O)[C@H](CCc2ccccc2)NC1=O (stereo partly drawn) [Compound 255, N-((7S,10S)-3^4-methyl-6,9,12-trioxo-7-phenethyl-2-oxa-5,8-diaza-1(3,1)-piperidina-3(1,3)-benzenacyclododecaphane-10-yl)acetamide] | –
– | – | > 7.00 | > 7.00 | > 7.00 | O=C(Cc1ccccc1)N[C@H]1CC(=O)N2CCCC(CCOc3ccc(F)c(c3)CNC(=O)[C@H](CCc3ccccc3)NC1=O)C2 (stereo partly drawn) [Compound 661, N-((9S,12S)-5^4-fluoro-8,11,14-trioxo-9-phenethyl-4-oxa-7,10-diaza-1(3,1)-piperidina-5(1,3)-benzenacyclotetradecaphane-12-yl)-2-phenylacetamide] | pIC50 [4]: > 7.00; pIC50 [5]: > 7.00; pIC50 [6]: > 7.00
– | – | > 7.00 | > 7.00 | > 7.00 | Cc1ccc2cc1CNC(=O)[C@H](CCc1ccccc1)NC(=O)[C@@H](NC(=O)CCNC1CC3(COC3)C1)CC(=O)N1CCCC(CCO2)C1 (stereo partly drawn) [Compound 720, 3-((2-oxaspiro[3.3]heptan-6-yl)amino)-N-((9S,12S)-5^4-methyl-8,11,14-trioxo-9-phenethyl-4-oxa-7,10-diaza-1(3,1)-piperidina-5(1,3)-benzenacyclotetradecaphane-12-yl)propanamide] | pIC50 [4]: 6.30 to 7.00; pIC50 [5]: 6.30 to 7.00; pIC50 [6]: 6.00 to 6.30

Structure (SMILES) | pIC50 (hPMBC) | pIC50 (HT-29 cells) | pIC50 [1] | pIC50 [2] | pIC50 [3] | further results
Cc1ccc2cc1CNC(=O)[C@H](CCc1ccccc1)NC(=O)[C@@H](NC(=O)CCN1CCC1)CC(=O)N1CCCC(CCO2)C1 (stereo partly drawn) [Compound 702, 3-(azetidin-1-yl)-N-((9S,12S)-5^4-methyl-8,11,14-trioxo-9-phenethyl-4-oxa-7,10-diaza-1(3,1)-piperidina-5(1,3)-benzenacyclotetradecaphane-12-yl)propanamide] | – | – | – | > 7.00 | > 7.00 | IC50 ([4]; RPMI-8226, 48 h, read-out: RPMI-8226 IC50 [nM]): < 100 nM; IC50 ([1]; A549, read-out: PGLo A549 [nM]): < 100 nM; IC50 ([5]; 48 h, read-out: MM1S IC50 [nM]): < 100 nM; IC50 ([6]; 48 h, read-out: Hs 746T IC50 [nM]): < 100 nM
Cc1ccc2cc1CNC(=O)[C@H](CCc1ccccc1)NC(=O)[C@@H](NC(=O)CCOC1CCC1)CC(=O)N1CCCC(CCO2)C1 (stereo partly drawn) [Compound 595, 3-cyclobutoxy-N-((9S,12S)-5^4-methyl-8,11,14-trioxo-9-phenethyl-4-oxa-7,10-diaza-1(3,1)-piperidina-5(1,3)-benzenacyclotetradecaphane-12-yl)propanamide] | – | – | > 7.00 | > 7.00 | > 7.00 | pIC50 [4]: > 7.00; pIC50 [5]: > 7.00; pIC50 [6]: > 7.00
